Data taken from PMC9386018, “A lymphatic-absorbed multi-targeted kinase inhibitor for myelofibrosis therapy” (Nature Communications, 2022).
Values joined by “and” are separate entries in the source; they are usually repeats but may differ in a detail not shown here. Identical values can stand only once.

Tests used:
[1] = molecular target: T1, Target kinase isoforms (PI3K, mTOR, RAF, MEK) (Homo sapiens, UniProt O00329); assay: Target kinase isoforms 10-point IC50 determination (Supplementary Fig. 7); assay type: biochemical; details: PI3K delta
T1 sequence (O00329 1-1044): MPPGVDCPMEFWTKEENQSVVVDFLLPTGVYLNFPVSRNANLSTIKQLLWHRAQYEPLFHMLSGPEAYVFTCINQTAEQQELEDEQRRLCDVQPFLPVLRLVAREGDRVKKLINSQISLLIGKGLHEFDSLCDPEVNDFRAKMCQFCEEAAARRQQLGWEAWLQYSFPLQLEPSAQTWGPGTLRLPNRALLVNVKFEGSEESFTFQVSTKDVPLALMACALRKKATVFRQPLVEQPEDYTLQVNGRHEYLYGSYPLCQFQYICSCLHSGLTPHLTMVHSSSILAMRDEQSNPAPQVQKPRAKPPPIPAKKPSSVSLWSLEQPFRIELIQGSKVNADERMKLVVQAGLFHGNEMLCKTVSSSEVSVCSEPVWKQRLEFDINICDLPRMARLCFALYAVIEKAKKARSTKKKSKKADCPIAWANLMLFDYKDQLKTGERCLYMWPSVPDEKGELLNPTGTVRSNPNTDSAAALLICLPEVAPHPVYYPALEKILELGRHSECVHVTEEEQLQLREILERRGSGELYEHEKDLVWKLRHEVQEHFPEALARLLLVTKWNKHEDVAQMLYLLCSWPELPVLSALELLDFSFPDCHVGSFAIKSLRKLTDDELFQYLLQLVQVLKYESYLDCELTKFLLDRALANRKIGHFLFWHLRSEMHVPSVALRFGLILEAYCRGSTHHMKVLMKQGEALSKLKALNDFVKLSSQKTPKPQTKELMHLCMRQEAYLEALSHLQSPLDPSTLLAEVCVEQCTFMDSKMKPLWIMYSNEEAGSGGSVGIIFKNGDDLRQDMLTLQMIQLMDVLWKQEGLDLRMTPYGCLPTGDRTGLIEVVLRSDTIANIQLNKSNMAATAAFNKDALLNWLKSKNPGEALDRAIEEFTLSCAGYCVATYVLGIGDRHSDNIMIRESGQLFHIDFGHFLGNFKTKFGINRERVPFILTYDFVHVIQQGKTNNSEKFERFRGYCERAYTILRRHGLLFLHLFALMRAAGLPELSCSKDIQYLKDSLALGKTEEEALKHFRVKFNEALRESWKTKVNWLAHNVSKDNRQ
Outline: (§1)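 Kinase activity across a 10-point dose series was corrected and normalized to vehicle-treated controls. IC50 values were derived by non-linear regression of percent activity. Kinome-wide percent inhibition was averaged over replicates.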

[2] = molecular target: Target kinase isoforms (PI3K, mTOR, RAF, MEK) (Homo sapiens, UniProt P48736); assay: as above; assay type: biochemical; details: PI3K gamma
Outline: as §1

[3] = system: phosphorylated ERK1/2 (pT202/pY204) in SET-2 cells; assay: Phospho-flow cytometry of pERK1/2 in SET-2 cells; assay type: cell-based, human; details: 5 μM, 16 h
Experimental: The human megakaryoblastic cell line, SET-2 (ATCC), was maintained in RPMI 1640 supplemented with 20% FBS and incubated for 16 h at 10^6 cells mL^−1 with LP-182 or vehicle (DMSO; dimethyl sulfoxide), then washed in ice-cold PBS, and collected for flow cytometry analysis. Single-cell suspensions of mouse spleen were prepared from MPL^W515L MF mice (below) in RPMI 1640 supplemented with 5% FCS. Red blood cells were lysed by ammonium chloride-mediated red cell lysis (RCL) buffer and passed through a nylon mesh, and then cells were counted. For intracellular phospho-protein staining, SET-2 or spleen cells were fixed and then permeabilized using BD Phospho-flow fixation buffer and Perm-Buffer III (BD biosciences) according to the manufacturer’s protocol. Intracellular phospho-protein staining was performed using fluorochrome-conjugated antibodies, pAKT (pS473)-Alexa Fluor 647 (MB89-61) or pERK1/2 (pT202/pY204)-Alexa Fluor 647 (20 A). All phospho-flow antibodies were purchased from BD Biosciences. […] Flow cytometry was performed on a FACS Fortessa (Becton, Dickinson and Co.) using FACSDiVa software, and data analyzed using FlowJo software (Tree Star). […]

[4] = concentration 0.0187 nM, 18.7 pM
[5] = concentration 0.0562 nM, 56.2 pM

Target kinase isoforms (PI3K, mTOR, RAF, MEK) (Homo sapiens, UniProt P48736), sequence (P48736 whole entry, canonical isoform): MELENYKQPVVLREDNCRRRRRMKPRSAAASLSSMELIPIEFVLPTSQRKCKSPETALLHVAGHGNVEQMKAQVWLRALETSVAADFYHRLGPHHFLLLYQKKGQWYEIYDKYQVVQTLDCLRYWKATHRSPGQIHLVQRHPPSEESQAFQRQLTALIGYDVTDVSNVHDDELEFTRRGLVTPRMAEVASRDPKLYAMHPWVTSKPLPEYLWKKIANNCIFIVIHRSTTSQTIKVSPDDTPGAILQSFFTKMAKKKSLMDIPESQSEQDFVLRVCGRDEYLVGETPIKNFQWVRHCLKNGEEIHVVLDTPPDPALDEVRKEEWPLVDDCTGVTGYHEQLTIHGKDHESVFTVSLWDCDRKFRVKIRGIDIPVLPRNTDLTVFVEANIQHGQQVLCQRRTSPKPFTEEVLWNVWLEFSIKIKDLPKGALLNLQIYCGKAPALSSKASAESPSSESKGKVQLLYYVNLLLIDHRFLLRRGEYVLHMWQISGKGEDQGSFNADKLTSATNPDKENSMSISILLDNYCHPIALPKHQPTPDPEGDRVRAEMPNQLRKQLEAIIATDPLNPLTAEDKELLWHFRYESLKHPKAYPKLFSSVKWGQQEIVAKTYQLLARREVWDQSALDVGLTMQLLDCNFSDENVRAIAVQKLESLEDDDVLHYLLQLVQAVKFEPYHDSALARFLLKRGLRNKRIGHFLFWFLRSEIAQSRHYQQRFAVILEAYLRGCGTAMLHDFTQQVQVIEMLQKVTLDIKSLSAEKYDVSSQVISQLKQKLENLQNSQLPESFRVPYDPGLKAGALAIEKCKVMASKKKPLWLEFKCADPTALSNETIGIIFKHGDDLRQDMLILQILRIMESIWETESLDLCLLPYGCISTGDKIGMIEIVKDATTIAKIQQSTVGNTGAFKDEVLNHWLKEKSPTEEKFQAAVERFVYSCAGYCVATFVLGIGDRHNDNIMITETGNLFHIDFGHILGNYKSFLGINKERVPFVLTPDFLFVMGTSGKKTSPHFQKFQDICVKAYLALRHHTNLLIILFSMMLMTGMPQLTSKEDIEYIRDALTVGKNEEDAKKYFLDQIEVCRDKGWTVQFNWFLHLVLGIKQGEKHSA

O=C(NOCCOCCOCCOCCC(=O)N1CCN(c2cnc3ccc(-c4cnc(Cl)c(NS(=O)(=O)c5ccc(F)cc5)c4)cc3n2)CC1)c1ccc(F)c(F)c1Nc1ccc(I)cc1F [LP-182, N-(2-(2-(2-(3-(4-(7-(6-chloro-5-((4-fluorophenyl)sulfonamido)pyridin-3-yl)quinoxalin-2-yl)piperazin-1-yl)-3-oxopropoxy)ethoxy)ethoxy)ethoxy)-3,4-difluoro-2-((2-fluoro-4-iodophenyl)amino)benzamide]
Kinase Activity (%) PI3K delta [1, 4]: 95% and 92% and 102% and 111% and 107%
Kinase Activity (%) PI3K delta [1, 5]: 105% and 92% and 107% and 113% and 96%
activity at 0.000495 µM ([1]; concentration 0.495 nM): 83%
activity at 0.00152 µM ([1]; concentration 1.52 nM): 71%
Kinase Activity (%) PI3K delta ([1]; concentration 4.57 nM, 0.00457 µM): 44%
Kinase Activity (%) PI3K delta ([1]; concentration 1110 nM, 1.11 µM): 6% and 2% and 7% and 4%
activity at 3.33 µM ([1]; concentration 3330 nM): 5%
Kinase Activity (%) PI3K delta ([1]; concentration 3330 nM, 3.33 µM): 6%
Kinase Activity (%) PI3K delta ([1]; concentration 10000 nM, 10 µM): 6% and 8% and 0% and 10% and 7%
activity at 0.123 µM ([2]; concentration 123 nM): 20%
activity at […] ([2]; concentration 370 nM): 6%
Kinase Activity (%) PI3K gamma ([2]; concentration 1110 nM, 1.11 µM): 1% and 3% and 4% and 0%
Kinase Activity (%) PI3K gamma ([2]; concentration 3330 nM, 3.33 µM): 0% and 1%
Kinase Activity (%) PI3K gamma ([2]; concentration 10000 nM, 10 µM): 4% and 0% and 2%
decrease of downstream activation of ERK1/2 [3]: ~ 50%

O=S(=O)(Nc1cc(-c2ccc3ncc(N4CCNCC4)nc3c2)cnc1Cl)c1ccc(F)cc1 [LP-527, N-(2-chloro-5-(3-(piperazin-1-yl)quinoxalin-6-yl)pyridin-3-yl)-4-fluorobenzenesulfonamide]
Kinase Activity (%) PI3K delta [1, 4]: 106% and 96% and 89% and 81%
Kinase Activity (%) PI3K delta [1, 5]: 100% and 95% and 78% and 86% and 79% and 91%
Kinase Activity (%) PI3K delta ([1]; concentration 41.2 nM, 0.0412 µM): 2% and 3%
Kinase Activity (%) PI3K delta ([1]; concentration 123 nM, 0.123 µM): 1% and 3%
Kinase Activity (%) PI3K delta ([1]; concentration 370 nM, […]): 2%
activity at 1.11 µM ([1]; concentration 1110 nM): 0%
Kinase Activity (%) PI3K delta ([1]; concentration 3330 nM, 3.33 µM): 2%
Kinase Activity (%) PI3K delta ([1]; concentration 10000 nM, 10 µM): 9%
activity at 18.7 pM ([2]; concentration 0.0187 nM): 118%
Kinase Activity (%) PI3K gamma ([2]; concentration 3330 nM, 3.33 µM): 0% and 3%
Kinase Activity (%) PI3K gamma ([2]; concentration 10000 nM, 10 µM): 3% and 0% and 8%
activity at 6.09 pM ([2]; concentration […]): 110%
